In US5843941A, “Ras farnesyl transferase inhibitors” (Genentech, Inc., priority 1994, dated 1998):
Read-outs that look alike come from different tables or passages of the source.

Molecular target: CAAX farnesyltransferase (Rattus norvegicus, UniProt Q02293+Q04631)
Assay: In vitro inhibition of CAAX farnesyltransferase
Assay type: biochemical
Parameters: purified to homogeneity from rat brain homogenates; from tissue; host or cells: rat brain; alternatively recombinant enzyme from a baculovirus expression system
Conditions: Table D
Procedure: All compounds were tested for in vitro inhibition of CAAX protein farnesyltransferase. […] Alternatively, recombinant CAAX protein farnesyltransferase was also used in this assay. […] Seventy-two hrs after infection, the cells were harvested and disrupted and the enzyme isolated by chromatography on Q-Sepharose.
After incubation for 30 min at 37° C., the amount of [3H]famesyl group transferred to p21H-ras was measured by precipitation with SDS/trichloroacetic acid, filtration onto nitrocellulose, and scintillation counting.
Structures of the compounds tested are reproduced below. Compound numbers also refer to example numbers above.

[1] = diastereomer A, read-out: EC50 (μM) "A"
[2] = diastereomer B, read-out: EC50 (μM) "B"

Sequence of CAAX farnesyltransferase (Q02293 whole entry, one chain of several): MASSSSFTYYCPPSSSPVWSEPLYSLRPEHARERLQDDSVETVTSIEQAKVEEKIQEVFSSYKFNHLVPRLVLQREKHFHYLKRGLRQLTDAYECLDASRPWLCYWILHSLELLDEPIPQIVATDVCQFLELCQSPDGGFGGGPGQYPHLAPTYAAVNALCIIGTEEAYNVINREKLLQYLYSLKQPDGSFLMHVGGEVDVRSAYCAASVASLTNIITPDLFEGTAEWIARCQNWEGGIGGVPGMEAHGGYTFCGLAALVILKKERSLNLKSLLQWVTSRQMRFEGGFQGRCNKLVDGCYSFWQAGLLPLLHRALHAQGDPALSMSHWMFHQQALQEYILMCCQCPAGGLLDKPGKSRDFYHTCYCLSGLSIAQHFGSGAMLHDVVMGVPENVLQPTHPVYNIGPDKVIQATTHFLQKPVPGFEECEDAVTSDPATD

Structure (SMILES) | EC50 [1] [µM] | EC50 [2] [µM]
CSCC[C@@H](C(=O)O)N(C)C(=O)CN1C(=O)C(N(C)C(=O)[C@@H](N)CS)N=C(c2ccccc2)c2ccccc21 (stereo partly drawn) [compound 64, N-[[3-[(2-amino-3-mercapto-1-oxopropyl)methylamino]-2,3-dihydro-2-oxo-5-phenyl-1H-1,4-benzodiazepin-1-yl]acetyl]-(N-methyl)-L-methionine] | 0.26 | 0.002
CN(CC(=O)O)C(=O)CN1C(=O)C(N(C)C(=O)[C@@H](N)CS)N=C(c2ccccc2)c2ccccc21 (stereo partly drawn) [compound 65, N-[[3-[(2-amino-3-mercapto-1-oxopropyl)methylamino]-2,3-dihydro-2-oxo-5-phenyl-1H-1,4-benzodiazepin-1-yl]acetyl]-(N-methyl)-glycine] | > 3 | 0.0038
CN(C(=O)[C@@H](N)CS)C1N=C(c2ccccc2)c2ccccc2N(CC(=O)N(CC(=O)O)Cc2ccccc2)C1=O (stereo partly drawn) [compound 66] | 2.4 | 0.0006
CSCC[C@H](NC(=O)CN1C(=O)C(N(C)C(=O)[C@@H](N)CS)N=C(c2ccccc2)c2cc(Cl)ccc21)C(=O)O (stereo partly drawn) [compound 67, N-[[3-[(2-amino-3-mercapto-1-oxopropyl)methylamino]-2,3-dihydro-2-oxo-5-phenyl-7-chloro-1H-1,4-benzodiazepin-1-yl]acetyl]-L-methionine] | 0.31 | 0.0004
CN(C(=O)[C@@H](N)CS)C1N=C(c2ccccc2)c2cc(Cl)ccc2N(CC(=O)N[C@@H](Cc2ccccc2)C(=O)O)C1=O (stereo partly drawn) [compound 68] | 0.14 | 0.0016
CN(C(=O)[C@@H](N)CS)C1N=C(c2ccccc2)c2cc(Cl)ccc2N(CC(=O)N[C@@H](Cc2ccccc2)C(N)=O)C1=O (stereo partly drawn) [compound 69, N-[[3-[(2-amino-3-mercapto-1-oxopropyl)methylamino]-2,3-dihydro-2-oxo-5phenyl-7-chloro-1H-1,4-benzodiazepin-1-yl]acetyl]-L-phenylalanine amide] | 1.5 | 0.0036
CN(C(=O)[C@@H](N)CS)C1N=C(c2ccccc2)c2cc(Cl)ccc2N(CC(=O)N[C@@H](Cc2ccc(F)cc2)C(=O)O)C1=O (stereo partly drawn) [compound 70, N-[[3-[(2-amino-3-mercapto-1-oxopropyl)methylamino]-2,3-dihydro-2-oxo-5-phenyl-7-chloro-1H-1,4-benzodiazepin-1-yl]acetyl]-L-4-fluoro-phenylalanine] | 0.13 | 0.0008
CN(C(=O)[C@@H](N)CS)C1N=C(c2ccccc2)c2cc(Cl)ccc2N(CC(=O)N[C@H](C(=O)O)C2CCCCC2)C1=O (stereo partly drawn) [compound 71, N-[[3-[(2-amino-3-mercapto-1-oxopropyl)methylamino]-2,3-dihydro-2-oxo-5-phenyl-7-chloro-1H-1,4-benzodiazepin-1-yl]acetyl]-L-(α-cyclohexyl)-glycine] | 0.1 | 0.0007
CN(C(=O)[C@@H](N)CS)C1N=C(c2ccccc2)c2cc(Cl)ccc2N(CC(=O)N[C@H](C(N)=O)C2CCCCC2)C1=O (stereo partly drawn) [compound 72, N-[[3-[(2-amino-3-mercapto-1-oxopropyl)methylamino]-2,3-dihydro-2-oxo-5-phenyl-7-chloro-1H-1,4-benzodiazepin-1-yl]acetyl]-L-(α-cyclohexyl)-glycine amide] | 0.6 | 0.0017
CSCC[C@H](NC(=O)CN1C(=O)C(N(C)C(=O)[C@@H](N)CS)C=C(c2ccccc2F)c2cc(Cl)ccc21)C(=O)O (stereo partly drawn) [compound 80, N-[[3-[(2-amino-3-mercapto-1-oxopropyl)methylamino]-2,3-dihydro-2-oxo-5-(2'-fluorophenyl)-7-chloro-1H-1,4-benzazepin-1-yl]acetyl]-L-methionine] | 0.0003 | 0.0003
CSCC[C@H](NC(=O)CN1C(=O)C(N(C)C(=O)[C@@H](N)CS)N=C(c2ccccc2Cl)c2cc(Cl)ccc21)C(=O)O (stereo partly drawn) [compound 81, N-[[3-[(2-amino-3-mercapto-1-oxopropyl)methylamino]-2,3-dihydro-2-oxo-5-(2'-chlorophenyl)-7-chloro-1H-1,4-benzodiazepin-1-yl]acetyl]-L-methionine] | 0.43 | 0.0002
CSCC[C@H](NC(=O)CN1C(=O)C(N(C)C(=O)[C@@H](N)CS)N=C(c2ccccc2F)c2cc(Cl)ccc21)C(=O)O (stereo partly drawn) [compound 82, N-[[3-[(2-amino-3-mercapto-1-oxopropyl)methylamino]-2,3-dihydro-2-oxo-5-(2'-fluorophenyl)-7-chloro-1H-1,4-benzodiazepin-1-yl]acetyl]-L-methionine] | 0.25 | 0.001
CSCC[C@H](NC(=O)CN1C(=O)C(N(C)C(=O)[C@@H](N)CS)C=C(c2ccccc2)c2cc(Cl)ccc21)C(=O)O (stereo partly drawn) [compound 83, N-[[3-[(2-amino-3-mercapto-1-oxopropyl)methylamino]-2,3-dihydro-2-oxo-5-phenyl-7-chloro-1H-1,4-benzazepin-1-yl]acetyl]-L-methionine] |  | 0.0007
CSCC[C@H](NC(=O)CN1C(=O)C(N(C)C(=O)[C@@H](N)CS)C=C(c2ccccc2Cl)c2cc(Cl)ccc21)C(=O)O (stereo partly drawn) [compound 92] | 0.001 | 0.001
CN(C(=O)C(N)CS)C1N=C(c2ccccc2)c2ccccc2N(Cc2cccc(C#N)c2)C1=O (stereo not drawn) [compound 93, N-[[3-[(2-amino-3-mercapto-1-oxopropyl)methylamino]-2,3-dihydro-2-oxo-5-phenyl-1H-1,4-benzodiazepin-1-yl]methyl]-3-benzonitrile] | 0.82 | 0.004
COC(=O)c1cccc(CN2C(=O)C(N(C)C(=O)C(N)CS)N=C(c3ccccc3)c3ccccc32)c1 (stereo not drawn) [compound 94, N-[[3-[(2-amino-3-mercapto-1-oxopropyl)methylamino]-2,3-dihydro-2-oxo-5-phenyl-1H-1,4-benzodiazepin-1-yl]methyl]-3-carboxymethylbenzene] | 0.82 | 0.0042
CN(C(=O)C(N)CS)C1N=C(c2ccccc2)c2ccccc2N(Cc2cccc(C(=O)O)c2)C1=O (stereo not drawn) [compound 95, N-[[3-[(2-amino-3-mercapto-1-oxopropyl)methylamino]-2,3-dihydro-2-oxo-5-phenyl-1H-1,4-benzodiazepin-1-yl]methyl]-3-carboxybenzene] | 0.88 | 0.0066
CN(C(=O)C(N)CS)C1N=C(c2ccccc2)c2ccccc2N(Cc2cccc(-c3nnn[nH]3)c2)C1=O (stereo not drawn) [compound 96, N-[[3-[(2-amino-3-mercapto-1-oxopropyl)methylanino]-2,3-dihydro-2-oxo-5-phenyl-1H-1,4benzodiazepin-1-yl]methyl]-3-tetrazolylbenzene] | 0.23 | 0.0013
COC(=O)c1cccc(CN2C(=O)C(N(C)C(=O)[C@@H](N)CS)N=C(c3ccccc3)c3cc(Cl)ccc32)c1 (stereo partly drawn) [compound 97, N-[[3-[(2-amino-3-mercapto-1-oxopropyl)methylamino]-2,3-dihydro-2-oxo-5-phenyl-7-chloro-1H-1,4-benzodiazepin-1-yl]methyl]-3-carboxymethylbenzene] |  | 0.0003
CN(C(=O)[C@@H](N)CS)C1N=C(c2ccccc2)c2ccccc2N(Cc2ccc(-c3ccccc3-c3nnn[nH]3)cc2)C1=O (stereo partly drawn) [compound 98, N-[[3-[(2-amino-3-mercapto-1-oxopropyl)methylamino]-2,3-dihydro-2-oxo-5-phenyl-1H-1,4-benzodiazepin-1-yl]methyl]-4-(2-tetrazolylphenyl) benzene] | 0.84 | 0.006
Cc1cccc(CN2C(=O)C(N(C)C(=O)[C@@H](N)CS)N=C(c3ccccc3)c3cc(Cl)ccc32)c1 (stereo partly drawn) [compound 102, N-[[3-[(2-amino-3-mercapto-1-oxopropyl)methylamino]-2,3-dihydro-2-oxo-5-phenyl-7-chloro-1H-1,4-benzodiazepin-1-yl]methyl]-3-methylbenzene] | 0.11 | 0.038
CN(C(=O)[C@@H](N)CS)C1N=C(c2ccccc2)c2cc(Cl)ccc2N(Cc2cccc(C(F)(F)F)c2)C1=O (stereo partly drawn) [compound 103, N-[[3-[(2-amino-3-mercapto-1-oxopropyl)methylamino]-2,3-dihydro-2-oxo-5-phenyl-7-chloro-1H-1,4-benzodiazepin-1-yl]methyl]-3-trifluoromethylbenzene] | 0.0074 | 0.0074
Cc1ccc(CN2C(=O)C(N(C)C(=O)[C@@H](N)CS)N=C(c3ccccc3)c3cc(Cl)ccc32)cc1 (stereo partly drawn) [compound 104, N-[[3-[(2-amino-3-mercapto-1-oxopropyl)methylamino]-2,3-dihydro-2-oxo-5-phenyl-7-chloro-1H-1,4-benzodiazepin-1-yl]methyl]-4-methylbenzene] | 0.0048 | 0.0048
CN(C(=O)[C@@H](N)CS)C1N=C(c2ccccc2)c2cc(Cl)ccc2N(Cc2ccccc2Cl)C1=O (stereo partly drawn) [compound 107, N-[[3-[(2-amino-3-mercapto-1-oxopropyl)methylamino]-2,3-dihydro-2-oxo-5-phenyl-7-chloro-1H-1,4-benzodiazepin-1-yl]methyl]-2-chlorobenzene] | 0.006 | 0.006
CSCC[C@H](NC(=O)CN1C(=O)C(N(C)C(=O)[C@@H](N)CSSC(C)(C)C)C=C(c2ccccc2F)c2cc(Cl)ccc21)C(=O)OC1CCCCC1 (stereo partly drawn) [compound 113, N-[[3-[(2-amino-3-tert-butylthiomercapto-1-oxopropyl)methylamino]-2,3-dihydro-2-oxo-5-(2'-fluorophenyl)-7-chloro-1H-1,4-benzazepin-1-yl]acetyl]-L-methionine cyclohexyl ester] | > 3 | > 3
